# Assay results taken from patent US12139487B2, “Compounds and uses thereof” (Foghorn Therapeutics Inc., priority 2022, dated 2024).
# Tests used:
# [1] = tested on: BRM-dependent transcription (BRG1 mutant lung cancer cell line A549); assay: BRM-dependent transcription, MMTV luciferase reporter in BRG1 mutant A549 cells; format: cell-based; settings: Table 11; for IC50: A549-MMTV luciferase reporter, dexamethasone induced, 6 hours; for Ratio (MDA-MMTV IC50 (μM) divided by A549-MMTV IC50 (μM)): MMTV luciferase reporter cell lines, selectivity BRG1/BRM
# Procedure: The potential inhibitory effects of compounds on BRG1 and BRM dependent transcription was study by testing the activity of against the BRG1 mutant lung cancer cell line A549 and a MDA cell line with BRM removed by CRISPR. Both cell lines were genetically engineered with a BRG1 or BRM-dependent mouse mammary tumor virus luciferase reporter. Luciferase transcription was induced by dexamethasone in the presence of compound at different concentrations and luminescence was measured using a plate reader 6 hours after stimulation.
# BRM = biological target: T1, BRM (Homo sapiens, UniProt P51531); assay: ATPase catalytic activity assay (ADP-Glo), BRM; format: biochemical; settings: ATPase assay, selectivity BRG1/BRM, Table 10
# T1 construct: made in house; host or cells: High Five insect cells
# T1 sequence (P51531 whole entry): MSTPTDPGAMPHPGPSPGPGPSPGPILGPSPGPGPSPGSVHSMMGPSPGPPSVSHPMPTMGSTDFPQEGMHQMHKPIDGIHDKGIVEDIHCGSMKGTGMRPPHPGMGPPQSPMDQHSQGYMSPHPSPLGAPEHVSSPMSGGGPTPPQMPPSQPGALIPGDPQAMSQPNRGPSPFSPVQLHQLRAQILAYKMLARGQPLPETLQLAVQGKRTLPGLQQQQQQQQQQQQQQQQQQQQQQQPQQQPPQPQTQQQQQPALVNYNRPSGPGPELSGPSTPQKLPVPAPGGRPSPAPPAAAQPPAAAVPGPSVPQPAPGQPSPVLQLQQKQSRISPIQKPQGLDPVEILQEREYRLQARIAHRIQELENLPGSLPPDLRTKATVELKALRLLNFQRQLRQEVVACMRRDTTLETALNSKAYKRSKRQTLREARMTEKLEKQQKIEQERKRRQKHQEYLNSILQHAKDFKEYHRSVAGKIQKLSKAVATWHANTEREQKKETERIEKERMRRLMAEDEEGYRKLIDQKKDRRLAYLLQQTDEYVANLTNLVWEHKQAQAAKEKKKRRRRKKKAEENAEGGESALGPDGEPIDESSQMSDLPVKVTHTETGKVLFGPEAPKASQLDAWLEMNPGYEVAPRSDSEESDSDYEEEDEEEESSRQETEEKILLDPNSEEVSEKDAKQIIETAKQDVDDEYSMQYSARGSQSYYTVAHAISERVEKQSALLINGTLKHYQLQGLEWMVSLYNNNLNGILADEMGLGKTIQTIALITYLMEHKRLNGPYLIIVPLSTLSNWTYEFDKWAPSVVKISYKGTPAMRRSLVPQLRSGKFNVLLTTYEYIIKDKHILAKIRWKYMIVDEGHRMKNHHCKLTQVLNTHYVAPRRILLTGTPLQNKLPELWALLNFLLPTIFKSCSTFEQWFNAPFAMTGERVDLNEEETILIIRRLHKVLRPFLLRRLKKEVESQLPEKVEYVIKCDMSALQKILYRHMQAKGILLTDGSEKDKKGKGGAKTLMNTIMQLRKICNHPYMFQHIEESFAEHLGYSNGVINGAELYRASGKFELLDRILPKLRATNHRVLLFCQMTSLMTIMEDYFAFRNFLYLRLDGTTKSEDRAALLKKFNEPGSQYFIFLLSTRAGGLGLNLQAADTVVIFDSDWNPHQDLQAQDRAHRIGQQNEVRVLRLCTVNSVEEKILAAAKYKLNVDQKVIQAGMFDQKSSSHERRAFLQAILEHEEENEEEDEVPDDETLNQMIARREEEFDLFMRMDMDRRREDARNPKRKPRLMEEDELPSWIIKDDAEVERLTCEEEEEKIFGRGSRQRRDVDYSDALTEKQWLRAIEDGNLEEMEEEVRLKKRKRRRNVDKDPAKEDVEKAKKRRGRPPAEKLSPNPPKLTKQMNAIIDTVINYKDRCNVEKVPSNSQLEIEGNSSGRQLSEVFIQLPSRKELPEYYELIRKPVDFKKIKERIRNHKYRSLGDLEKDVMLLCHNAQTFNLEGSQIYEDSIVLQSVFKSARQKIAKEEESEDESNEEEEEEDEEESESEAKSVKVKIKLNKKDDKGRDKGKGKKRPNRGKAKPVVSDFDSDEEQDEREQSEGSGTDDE
# Procedure: The ATPase catalytic activity of BRM or BRG-1 was measured by an in vitro biochemical assay using ADP-Glo™ (Promega, V9102). The ADP-Glo™ kinase assay is performed in two steps once the reaction is complete. The first step is to deplete any unconsumed ATP in the reaction. The second step is to convert the reaction product ADP to ATP, which will be utilized by the luciferase to generate luminesce and be detected by a luminescence reader, such as Envision.
# The assay reaction mixture […] contains 30 nM of BRM or BRG-1, 20 nM salmon sperm DNA (from Invitrogen, UltraPure™ Salmon Sperm DNA Solution, cat #15632011), and 400 μM of ATP in the ATPase assay buffer, which comprises of 20 mM Tris, pH 8, 20 mM MgCl2, 50 mM NaCl, 0.1% Tween-20, and 1 mM fresh DTT (Pierce™ DTT (Dithiothreitol), cat #20290). The reaction is initiated by the addition of the 2.5 μL ATPase solution to 2.5 μL ATP/DNA solution on low volume white Proxiplate-384 plus plate (PerkinElmer, cat #6008280) and incubates at room temperature for 1 hour. Then, following addition of 5 μL of ADP-Glo™ Reagent provided in the kit, the reaction incubates at room temperature for 40 minutes. Then, 10 μL of Kinase Detection Reagent provided in the kit is added to convert ADP to ATP, and the reaction incubates at room temperature for 60 minutes. Finally, luminescence measurement is collected with a plate-reading luminometer, such as Envision.
Compound,"IC50 ([1]; Homo sapiens, A549, 6 h)",Ratio (MDA-MMTV IC50 (μM) divided by A549-MMTV IC50 (μM)) [1],IC50 [1],Ratio (BRG1 IC50 (μM) divided by BRM IC50 (μM)) (BRM)
COc1nc([C@@H](F)CF)ccc1-c1ccc2cnc(CNC(=O)c3cc(Br)c4c(c3)S(=O)(=O)[C@@H](F)COC4)cc2n1 [Compound 450],15.4 nM,35.43,,
O=C(NCc1cc2nc(-c3ccc(OC(F)F)c([C@@H]4CC4(F)F)n3)ccc2cn1)c1cc(Cl)c2c(c1)S(=O)(=O)[C@@H](F)COC2 [Compound 449],7.4 nM,37.87,,
CCOc1nc([C@@H](F)CF)ccc1-c1ccc2cnc(CNC(=O)c3cc(Cl)c4c(c3)S(=O)(=O)[C@@H](F)COC4)cc2n1 [Compound 516],,31.51,12.1 nM,
COCCCOc1cnc2c(c1)OCCN2c1ccc2cnc(CNC(=O)c3cc(C(F)F)c4c(c3)S(=O)(=O)[C@@H](F)COC4)cc2n1 [Compound 494],5.7 nM,28.82,,
[2H]C([2H])([2H])C([2H])([2H])Oc1ccc(-c2ccc3cnc(CNC(=O)c4cc(F)c5c(c4)S(=O)(=O)[C@@H](F)COC5)cc3n2)nc1[C@@H]1CC1(F)F [Compound 464],7.1 nM,39.23,,
COCCOc1cnc2c(c1)C(F)(F)CCN2c1ccc2cnc(CNC(=O)c3cc(Br)c4c(c3)S(=O)(=O)[C@@H](F)CCO4)cc2n1 [Compound 462],8.1 nM,25.94,,
O=C(NCc1cc2nc(-c3ccc([C@H](F)C(F)F)c(C4CC4)n3)ccc2cn1)c1cc(Br)c2c(c1)S(=O)(=O)[C@@H](F)COC2 [Compound 492],16.6 nM,24.09,,
C[C@@H]1CCN1c1cnc2c(-c3ccc4cnc(CNC(=O)c5cc(Cl)c6c(c5)S(=O)(=O)[C@@H](F)COC6)cc4n3)cccc2c1 [Compound 497],,29.41,12.4 nM,
[2H]C([2H])([2H])C([2H])([2H])Oc1nc(C(C)(F)F)ccc1-c1ccc2cnc(CNC(=O)c3cc(Cl)c4c(c3)S(=O)(=O)[C@@H](F)COC4)cc2n1 [Compound 499],15 nM,24.97,,
COc1nc([C@@H](F)CF)ccc1-c1ccc2cnc(CNC(=O)c3cc(Cl)c4c(c3)S(=O)(=O)[C@@H](F)COC4)cc2n1 [Compound 381],6.8 nM,29.06,,
CCOc1nc(C(F)F)ccc1-c1ccc2cnc(CNC(=O)c3cc(Cl)c4c(c3)S(=O)(=O)[C@@H](F)COC4)cc2n1 [Compound 431],9.5 nM,31.77,,
CCOc1nc([C@H](F)CF)ccc1-c1ccc2cnc(CNC(=O)c3cc(Cl)c4c(c3)S(=O)(=O)[C@@H](F)COC4)cc2n1 [Compound 481],,50.79,10.2 nM,
[2H]C1([2H])Oc2c(F)cc(C(=O)NCc3cc4nc(-c5ccc(OCC)c(C6CC6(F)F)n5)ccc4cn3)cc2S(=O)(=O)[C@@]([2H])(F)C1([2H])[2H] (stereo partly drawn) [Compound 374],17.8 nM,54.50,,
[2H]C([2H])([2H])OC([2H])([2H])C([2H])([2H])Oc1cnc2c(c1)OCCN2c1ccc2cnc(CNC(=O)c3cc(C(F)F)c4c(c3)S(=O)(=O)[C@@H](F)COC4)cc2n1 [Compound 500],7.7 nM,21.12,,
CCOc1nc([C@H](F)CF)ccc1-c1ccc2cnc(CNC(=O)c3cc(Cl)c4c(c3)S(=O)(=O)[C@@H](F)COC4)cc2n1 [Compound 519],,28.12,22.6 nM,
CCOc1nc([C@@H](F)CF)ccc1-c1ccc2cnc(CNC(=O)c3cc(C(F)F)c4c(c3)S(=O)(=O)[C@@H](F)COC4)cc2n1 [Compound 457],,33.28,7.2 nM,
CCOc1nc(C(C)(F)F)ccc1-c1ccc2cnc(CNC(=O)c3cc(Cl)c4c(c3)S(=O)(=O)[C@@H](F)COC4)cc2n1 [Compound 445],21.2 nM,22.07,,
CCOc1nc([C@@H](F)CF)ccc1-c1ccc2cnc(CNC(=O)c3cc(Br)c4c(c3)S(=O)(=O)[C@@H](F)COC4)cc2n1 [Compound 517],,35.51,20.4 nM,

# Next, values leading:
"IC50 ([1]; Homo sapiens, A549, 6 h)",Ratio (MDA-MMTV IC50 (μM) divided by A549-MMTV IC50 (μM)) [1],IC50 [1],Ratio (BRG1 IC50 (μM) divided by BRM IC50 (μM)) (BRM),Compound
17.3 nM,34.06,,,O=C(NCc1cc2nc(-c3cccc(OCC(F)F)n3)ccc2cn1)c1cc(Cl)c2c(c1)S(=O)(=O)[C@@H](F)COC2 [Compound 387]
27.5 nM,39.11,,,O=C(NCc1cc2nc(-c3cccc(C4CC4)n3)ccc2cn1)c1cc(Br)c2c(c1)S(=O)(=O)[C@@H](F)COC2 [Compound 417]
14.9 nM,23.16,,,O=C(NCc1cc2nc(-c3cnc(OC(F)F)c(C4CC4)n3)ccc2cn1)c1cc(F)c2c(c1)S(=O)(=O)[C@@H](F)CCO2 [Compound 373]
17.9 nM,22.13,,,O=C(NCc1cc2nc(-c3cccc(OC(F)(F)F)n3)ccc2cn1)c1cc(F)c2c(c1)S(=O)(=O)[C@@H](F)CCO2 [Compound 361]
17.2 nM,25.03,,,Cc1ccc(-c2ccc3cnc(CNC(=O)c4cc(Cl)c5c(c4)S(=O)(=O)[C@@H](F)CCO5)cc3n2)c(OC(F)F)n1 [Compound 347]
3 nM,17.70,,,COc1nc([C@](C)(F)C(F)F)ccc1-c1ccc2cnc(CNC(=O)c3cc(F)c4c(c3)S(=O)(=O)[C@@H](F)CCOC4)cc2n1 [Compound 367]
1.9 nM,22.21,,,O=C(NCc1cc2nc(-c3cccc(C4CC4)n3)ccc2cn1)c1ccc2c(c1)S(=O)(=O)[C@@H](F)CCOC2 [Compound 364]
17 nM,25.08,,,C[C@@H]1CN(c2cccc(-c3ccc4cnc(CNC(=O)c5cc(C6CC6)c6c(c5)S(=O)(=O)[C@@H](F)CCO6)cc4n3)n2)C[C@H](C)O1 [Compound 350]
23.9 nM,52.60,,,[2H]C1([2H])Oc2c(Cl)cc(C(=O)NCc3cc4nc(-c5cccc(OC(F)F)n5)ccc4cn3)cc2S(=O)(=O)[C@@H](F)C1([2H])[2H] [Compound 418]
122 nM,28.75,,,C[C@@H]1CN(c2cccc(-c3ccc4cnc(CNC(=O)c5cc(F)c6c(c5)S(=O)(=O)[C@@H](F)CO6)cc4n3)n2)C[C@H](C)O1 [Compound 341]
7.9 nM,21.86,,,O=C(NCc1cc2nc(-c3ccc(C(F)F)c(C4CC4)n3)ccc2cn1)c1cc(Cl)c2c(c1)S(=O)(=O)[C@@H](F)CCO2 [Compound 371]
,25.44,8.2 nM,,CCOc1nc(C(C)(F)F)ccc1-c1ccc2cnc(CNC(=O)c3cc(F)c4c(c3)S(=O)(=O)[C@@H](F)COC4)cc2n1 [Compound 471]
25.1 nM,47.75,,,O=C(NCc1cc2nc(-c3ccc(OC(F)F)c(C4CC4)n3)ccc2cn1)c1cc(Br)c2c(c1)S(=O)(=O)[C@@H](F)CCO2 [Compound 400]
2.2 nM,17.34,,,COc1nc([C@@](C)(F)C(F)F)ccc1-c1ccc2cnc(CNC(=O)c3cc(F)c4c(c3)S(=O)(=O)[C@@H](F)CCOC4)cc2n1 [Compound 368]
13.8 nM,25.74,,,CC(C)c1ccc(-c2ccc3cnc(CNC(=O)c4cc(F)c5c(c4)S(=O)(=O)[C@@H](F)CCO5)cc3n2)nc1C1CC1 [Compound 396]
2.3 nM,24.38,,,O=C(NCc1cc2nc(N3CCC(F)(F)c4cc(C5CC5)cnc43)ccc2cn1)c1cc(F)c2c(c1)S(=O)(=O)[C@@H](F)CCO2 [Compound 425]
10.4 nM,32.08,,,CCOc1nc([C@@H](F)CF)ccc1-c1ccc2cnc(CNC(=O)c3cc(Cl)c4c(c3)S(=O)(=O)[C@@H](F)CCO4)cc2n1 [Compound 423]
,,,13.06,C[C@@H]1CN(c2cccc(-c3ccc4cnc(CNC(=O)c5cc(F)c6c(c5)S(=O)(=O)[C@@H](F)CCO6)cc4n3)n2)C[C@H](C)O1 [Compound 325]
,,,9.92,C[C@@H]1CN(c2cccc(-c3ccc4cnc(CNC(=O)c5cc(F)c6c(c5)S(=O)(=O)[C@@H](F)CCO6)cc4n3)n2)C[C@H](C)O1 [Compound 14]
